Literature values, collected in US20210401736A1, “SEMI-SOLID CHEWABLE GEL CANNABINOID COMPOSITIONS AND METHODS OF MAKING AND USING THEREOF” (Seattle Gummy Company, priority 2019, published 2021).

What was measured:
[1] = test system: alpha2-adrenergic receptor
CB1 receptor = CB1 receptor (Homo sapiens, UniProt P21554)
5-HT1A receptor = target: T1, 5-HT1A receptor (Homo sapiens, UniProt P08908)
T1 sequence (P08908 1-422): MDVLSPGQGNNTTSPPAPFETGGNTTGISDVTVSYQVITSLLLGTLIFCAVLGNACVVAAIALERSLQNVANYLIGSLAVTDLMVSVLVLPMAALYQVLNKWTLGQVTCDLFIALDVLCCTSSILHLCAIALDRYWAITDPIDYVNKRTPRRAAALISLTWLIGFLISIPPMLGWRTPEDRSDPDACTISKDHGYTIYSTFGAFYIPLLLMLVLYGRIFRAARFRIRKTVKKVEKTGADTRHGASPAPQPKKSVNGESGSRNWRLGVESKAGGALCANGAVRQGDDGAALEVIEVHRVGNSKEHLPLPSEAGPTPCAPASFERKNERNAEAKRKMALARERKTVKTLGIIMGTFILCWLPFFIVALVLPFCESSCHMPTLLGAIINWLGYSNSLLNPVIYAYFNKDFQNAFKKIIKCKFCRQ

[2] = 5 mg of CBN versus 10 mg dose of diazepam, according to studies

Sequence of CB1 receptor (P21554 whole entry): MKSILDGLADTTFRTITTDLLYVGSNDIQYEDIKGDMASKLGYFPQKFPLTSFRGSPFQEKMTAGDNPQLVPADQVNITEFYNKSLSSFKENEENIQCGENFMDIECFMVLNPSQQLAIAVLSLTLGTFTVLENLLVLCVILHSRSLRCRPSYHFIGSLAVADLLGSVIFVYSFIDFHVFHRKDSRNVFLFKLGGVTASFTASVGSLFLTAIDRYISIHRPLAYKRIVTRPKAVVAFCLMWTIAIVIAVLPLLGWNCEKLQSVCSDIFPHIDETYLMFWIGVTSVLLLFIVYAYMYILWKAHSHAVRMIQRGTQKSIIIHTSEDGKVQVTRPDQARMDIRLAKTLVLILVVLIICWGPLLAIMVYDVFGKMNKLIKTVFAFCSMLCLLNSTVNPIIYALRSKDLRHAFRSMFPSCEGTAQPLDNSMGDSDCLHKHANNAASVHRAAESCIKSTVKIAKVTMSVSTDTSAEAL

## CCCCCc1cc(O)c(C/C=C(\C)CCC=C(C)C)c(O)c1 [CBG, cannabigerol]
[1]
  affinity, alpha2-adrenergic receptor agonist: high affinity
other
  solubility in polyols such as glycerol: low solubility
  solubility in water: water insoluble
CB1 receptor
  affinity, CB1 receptor antagonist: low affinity
5-HT1A receptor
  affinity, 5-HT1A receptor antagonist: moderate affinity

## C=C(C)[C@@H]1CCC(C)=C[C@H]1c1c(O)cc(CCCCC)cc1O [CBD, cannabidiol, reference compound]
other
  solubility in polyols such as glycerol: low solubility
  solubility in water: water insoluble

## CCCCCc1cc(O)c2c(c1)OC(C)(C)c1ccc(C)cc1-2 [CBN, cannabinol]
[2]
  sedative effect: as effective as 10 mg dose of diazepam
